From patent publication US10328161B2, “Luciferin derivatives from bicyclic reactants and aminothiol derivatives and methods of use thereof” (The Regents of the University of California, priority 2012, dated 2019)

Columns and labels:
PC3M-luc cells [1] = assay: Comparison of in situ luciferin formation and luciferin in PC3M-luc cells (intact and lysed); assay type: cell-based
Method: (§1) A Xenogen IVIS Spectrum instrument (Caliper Life Sciences, Hopkinton, Mass.) was used for bioluminescent imaging in all cellular experiments. PC3M-luc cells (kindly provided by Chris Contag, Stanford University) were cultured in Dulbecco's Modified Eagle Medium (DMEM) containing 10% Fetal Bovine Serum (FBS). Prior to assaying, cells were passed and plated (1.3-1.5×10^4 cells/well) in black 96-well plates with clear bottoms (Becton Dickinson and Company, Franklin Lakes, N.J.). Once the cells were ca. 95% confluent, reagents were added for bioluminescent assays.
PC3M-luc cells prepared as described above were washed with HBSS (25 mM glucose) prior to addition of HCBT and D-cysteine (0-500 μM, 1% DMSO) or luciferin (0-500 μM, 1% DMSO) in HBSS (25 mM glucose). For experiments with lysed cells, 100 μL Glo lysis buffer (Promega, Madison, Wis.) was incubated with the PC3M-luc cells for 5 min prior to addition of HCBT and D-cysteine or luciferin. The plates were immediately imaged for 2 h to determine the peak bioluminescent signal produced.

PC3M-luc cells [2] = assay: Signal produced from endogenous L-cysteine in PC3M-luc cells; assay type: cell-based; details: HCBT alone 0-50 μM
Method: as §1
PC3M-luc cells prepared as described above were washed with HBSS (25 mM glucose) prior to addition of HCBT and D-cysteine (0-50 μM, 1% DMSO) or HCBT alone (0-50 μM, 1% DMSO) in HBSS (25 mM glucose). The plate was immediately imaged for 2 h to determine the peak bioluminescent signal produced.

[3] = Selectivity assay for PCL-2: panel of various ROS; assay type: biochemical
Method: (§2) Millipore water was used to prepare all aqueous solutions. Luciferase (100 μg/mL) in 50 mM Tris buffer, pH 7.4, with 10 mM MgCl2, 0.1 mM ZnCl2, and 2 mM ATP was added to selectivity assay samples (described below) to determine the relative amount of luciferin formed during incubation. Measurements for bioluminescent assays were performed at 37° C. and were recorded using a Molecular Devices SpectraMax M2 plate reader (Sunnyvale, Calif.). Samples for bioluminescent measurements were placed in white, opaque 96-well plates, which were purchased from Corning Inc. (Corning, N.Y.). ATP was purchased from MP Biomedicals (Solon, Ohio) or Sigma-Aldrich (St. Louis, Mo.), and luciferase was purchased from Promega (Madison, Wis.). Caspase enzymes were purchased from Sigma-Aldrich (St. Louis, Mo.), and caspase inhibitors were purchased from MP Biomedicals (Solon, Ohio).
(§3) Various ROS (100 μM) were administered to PCL-2 or HCBT (5 μM) in Tris buffer (50 mM, pH 7.4) with or without 10 mM MgCl2 and 0.1 mM ZnCl2. […] After an additional 15 min incubation, 100 μL of a Tris buffer (50 mM, pH 7.4) containing luciferase (100 μg/mL), 10 mM MgCl2, 0.1 mM ZnCl2, and 2 mM ATP was added to 100 μL of the PCL-2 or HCBT solutions and the bioluminescent signal was detected.

PC3M-luc cells [4] = assay: Lifetime of HCBT and D-cysteine in PC3M-luc cells; assay type: cell-based; details: 100 μM, 30 min incubation, wash, complementary reagent after 0-60 min
Method: as §1
The medium was removed from PC3M-luc cells prepared as described above, and HCBT (100 μM, 1% DMSO) or D-cysteine (100 μM, 1% PBS) in DMEM (-FBS) was added. After a 30 min incubation, the HCBT or D-cysteine was removed, the cells were washed with DMEM (-FBS), and fresh DMEM was added. After 0, 15, 30, 45, or 60 min, the second component of luciferin, D-cysteine (100 μM final concentration, 1% PBS) or HCBT (100 μM final concentration, 1% DMSO) in HBSS (25 mM glucose) was added, and the plate was immediately imaged for 2 h to determine the peak bioluminescent signal produced.

FVB-luc^+ mice [5] = assay: Signal produced from endogenous L-cysteine in mice; assay type: in vivo; details: HCBT 0.05 μmol IP without D-cysteine
Excerpt: (§4) A Xenogen IVIS Spectrum instrument (Caliper Life Sciences, Hopkinton, Mass.) was used for bioluminescent imaging in all animal experiments. Mice were anesthetized prior to injection and during imaging via inhalation of isoflurane. Phosphate Buffered Saline (PBS) was purchased from Thermo Fisher Scientific (Waltham, Mass.), and saline (0.9%) was made from sodium chloride and Millipore water. Isoflurane was purchased from Phoenix Pharmaceuticals, Inc. (St. Joseph, Mo.), and pharmaceutical grade DMSO was purchased from Sigma-Aldrich (St. Louis, Mo.). Medical grade oxygen was purchased from Praxair (Danbury, Conn.).
(§5) FVB-luc^+ (FVB-Tg(CAG-luc,-GFP)L2G85Chco/J) mice were bred at UC Berkeley, and were single or group-housed on a 12:12 light-dark cycle at 22° C. with free access to food and water. All studies were approved and performed according to the guidelines of the Animal Care and Use Committee of the University of California, Berkeley.
Unshaven, male FVB-luc+ mice were anesthetized with isoflurane and injected IP with D-cysteine (0.05 μmol, in 20 μL of PBS) or vehicle (20 μL PBS). After 2 min, mice were injected IP with HCBT (0.05 μmol in 50 μL of 1:1 DMSO:PBS). Following injections, mice were imaged with an IVIS Spectrum.

[6] = Selectivity assay for PCL-2: response to H2O2; assay type: biochemical; details: PCL-2 5 μM, H2O2 100 μM, 5-60 min, then D-cysteine and luciferase
Method: as §2, §3

[7] = Kinetic analysis of the PCL-2 and H2O2 reaction; assay type: physicochemical; details: PCL-2 10 μM, H2O2 1, 2.5 or 5 mM, Tris buffer pH 8.5
Method: H2O2 (1, 2.5, or 5 mM) was added to PCL-2 (10 μM) in Tris buffer (pH 8.5) and absorbance measurements were recorded every 15-30 seconds over 5-20 minutes to determine the second order rate constant for the reaction. Measurements were taken at pH 8.5 to distinguish the HCBT peak, which shifts from 321 nm to 379 nm when it is deprotonated, from the PCL-2 peak (321 nm).

[8] = Concentration dependence of PCL-2 in aqueous solution; assay type: biochemical
Method: as §2
PCL-2 was incubated in Tris buffer (50 mM, pH 7.4) with various concentrations of H2O2 for 60 min prior to the addition of catalase (0.4 mg/mL), dithiothreitol (1 mM) and D-cysteine (20 μM). After an additional 15 min incubation, 100 μL of a Tris buffer (50 mM, pH 7.4) containing luciferase (100 μg/mL), 10 mM MgCl2, 0.1 mM ZnCl2, and 2 mM ATP was added to 100 μL of the PCL-2 solutions and the bioluminescent signal was detected.

PC3M-luc cells [9] = assay: Concentration dependence of PCL-2 with PC3M-luc cells; assay type: cell-based; details: PCL-2 25 μM, D-cysteine 25 μM
Method: as §1
The medium was removed from PC3M-luc cells prepared as described above, and PCL-2 (25 μM, 2.5% final DMSO concentration), D-cysteine (25 μM), and H2O2 (0-100 μM final concentrations) in DMEM (-FBS) were added. The plate was immediately imaged for 2 h to determine the peak bioluminescent signal produced from PCL-2.

[10] = Exogenous H2O2 experiments in mice; assay type: in vivo
Excerpt: as §4, §5
Unshaven, male FVB-luc^+ mice were anesthetized with isoflurane and injected IP with a mixture of PCL-2 and D-cysteine (0.05 μmol each, in 50 μL of 1:1 DMSO:PBS), followed immediately by an IP injection of H2O2 (0-4.5 μmol in 100 μL of PBS). Control mice were injected IP with a mixture of HCBT and D-cysteine (0.01 μmol each, in 50 μL of 1:1 DMSO:PBS) immediately prior to H2O2 (4.5 μmol in 100 μL of PBS). Following injections, mice were imaged with an IVIS Spectrum.

[11] = Lipopolysaccharide inflammation model, H2O2 detection with PCL-2; assay type: in vivo, mice; details: LPS 3 mg/kg IP 6 h before PCL-2 and D-cysteine 0.05 μmol each
Excerpt: as §4, §5
Unshaven, female FVB-luc^+ mice, aged 2-5 months, were anesthetized with isoflurane and injected IP with lipopolysaccharides (LPS, 3 mg/kg in 50 μL of saline) or saline (50 μL). For studies with PCL-2 alone, mice were injected IP with either apocynin (10 mg/kg in 20 μL of DMSO) or DMSO (20 μL) 6 h after LPS injection. […]

FVB-luc^+ mice [12] = assay: Comparison of in situ luciferin formation and luciferin in mice; assay type: in vivo; details: 0.05 μmol luciferin IP
Excerpt: A Xenogen IVIS Spectrum instrument (Caliper Life Sciences, Hopkinton, Mass.) was used for bioluminescent imaging in all animal experiments. Mice were anesthetized prior to injection and during imaging via inhalation of isoflurane. Phosphate Buffered Saline (PBS) was purchased from Thermo Fisher Scientific (Waltham, Mass.), and saline (0.9%) was made from sodium chloride and Millipore water. Isoflurane was purchased from Phoenix Pharmaceuticals, Inc. (St. Joseph, Mo.), and pharmaceutical grade DMSO was purchased from Sigma-Aldrich (St. Louis, Mo.). Medical grade oxygen was purchased from Praxair (Danbury, Conn.). FVB-luc^+ (FVB-Tg(CAG-luc,-GFP)L2G85Chco/J) mice were bred at UC Berkeley, and were single or group-housed on a 12:12 light-dark cycle at 22° C. with free access to food and water. All studies were approved and performed according to the guidelines of the Animal Care and Use Committee of the University of California, Berkeley. Unshaven, male FVB-luc^+ mice were anesthetized with isoflurane and injected IP with D-[…].05 or 0.5 μmol, in 20 μL of PBS) or vehicle (20 μL PBS). After 2 min, mice were injected IP with HCBT (0.05 or 0.5 μmol in 50 μL of 1:1 DMSO:PBS) or luciferin (0.05 μmol in 50 μL of 1:1 DMSO:PBS). Following injections, mice were imaged with an IVIS Spectrum.

N#Cc1nc2ccc(O)cc2s1 [HCBT, 2-Cyano-6-hydroxybenzothiazole]
permeability across the cell membrane compared to luciferin (PC3M-luc cells [1]; inferred from intact versus lysed PC3M-luc cells): increased permeability
bioluminescence from HCBT and endogenous L-cysteine compared to HCBT with D-cysteine (PC3M-luc cells [2]): negligible production of bioluminescence
bioluminescence turn-on with the same panel of ROS ([3]; HCBT 5 μM, ROS 100 μM incl. H2O2, 60 min): no bioluminescence turn-on
cellular lifetime: signal as time between removal and addition of the complementary reagent increases (PC3M-luc cells [4]): decrease in luminescence
bioluminescent signal from HCBT and endogenous L-cysteine compared to D-cysteine present (FVB-luc^+ mice [5]): negligible

N#Cc1nc2ccc(OCc3ccc(B(O)O)cc3)cc2s1 [PCL-2, 4-((2-Cyanobenzo[d]thiazol-6-yloxy)methyl)phenylboronic acid]
increase in bioluminescence in the presence of H2O2 [6]: ca. 50 fold
second-order rate constant k for the PCL-2 and H2O2 reaction [7]: 2.7 M⁻¹ s⁻¹
range of linear response to H2O2 ([8]; PCL-2 5 μM, 60 min, aqueous solution): 1-100 μM H2O2
detection limit for H2O2 ([8]; in vitro summary statement): low micromolar
range of linear response to H2O2 in cellulo (PC3M-luc cells [9]): 0-100 μM H2O2
Turn-on ([10]; H2O2 0.5 μmol, PCL-2 0.05 μmol): 2.8-fold
detection limit for H2O2 in vivo ([10]; IP, FVB-luc^+ mice, optimized imaging conditions for each probe): ca. 0.5 μmol
response to other ROS ([3]; 5 μM probe, ROS 100 μM (TBHP, hypochlorite, NO, OH, OtBu, O2-)): negligible response
turn-on in response to LPS stimulation [11]: ca. 3.7 fold

O=C(O)[C@H]1CSC(c2nc3ccc(O)cc3s2)=N1 [luciferin]
bioluminescent signal, luciferin versus HCBT/D-cysteine (PC3M-luc cells [1]; intact PC3M-luc cells, lower concentrations (0-500 μM range)): greater signal than HCBT/D-cysteine
brightness of signal relative to 0.05 μmol HCBT/D-cysteine (FVB-luc^+ mice [12]): ca. 40 fold
